Assay results from publication PMC9516332 (Frontiers in Oncology, 2022).
Read-outs that look alike come from different tables or passages of the source.

Test system: 134 cancer cell lines
Test: Cell viability assay (ATPlite, 72 hours), IC50 on cancer cell line panel

For `CO[C@]1(C(=O)N[C@@H](C)c2ccc(-n3cc(F)cn3)nc2)CC[C@H](c2nc(C)cc(Nc3cc(C)[nH]n3)n2)CC1` [pralsetinib], the IC50 (Homo sapiens, MOLM-13, read-out: IC50 in cell proliferation assay, MOLM-13 cell line (FLT3 ITD)) was 0.033 µM, the IC50 (Homo sapiens, MOLT-4, read-out: IC50 in cell proliferation assay, MOLT-4 cell line) was 9.35 µM and the IC50 (Homo sapiens, MV4-11, read-out: IC50 in cell proliferation assay, MV4-11 cell line (FLT3 ITD)) was 0.087 µM. The IC50 (Homo sapiens, MeWo, read-out: IC50 in cell proliferation assay, MeWo cell line) was 6.97 µM, the IC50 (Homo sapiens, NCCIT, read-out: IC50 in cell proliferation assay, NCC-IT cell line) was 1.66 µM and the IC50 (Homo sapiens, NCI-H82, read-out: IC50 in cell proliferation assay, cell line NCI-H82) was 10.9 µM. It also gave an IC50 (Homo sapiens, NCI-H460, read-out: IC50 in cell proliferation assay, NCI-H460 cell line) of 9.4 µM, an IC50 (Homo sapiens, NCI-H661, read-out: IC50 in cell proliferation assay, NCI-H661 cell line) of 2.1 µM and an IC50 (Homo sapiens, NCI-H716, read-out: IC50 in cell proliferation assay, cell line NCI-H716 (FGFR2-COL14A1)) of 0.244 µM. For the same compound, the IC50 (Homo sapiens, NCI-H1650, read-out: IC50 in cell proliferation assay, NCI-H1650 cell line (EGFR exon19del)) was 2.56 µM, the IC50 (Homo sapiens, NCI-H1975, read-out: IC50 in cell proliferation assay, NCI-H1975 cell line (EGFR p.L858R + p.T790M)) was 6.51 µM and the IC50 (Homo sapiens, NCI-H2228, read-out: IC50 in cell proliferation assay, NCI-H2228 cell line (EML4-ALK)) was 7.94 µM. The IC50 (Homo sapiens, OVCAR-3, read-out: IC50 in cell proliferation assay, cell line OVCAR-3) was 4.11 µM, the IC50 (Homo sapiens, PFSK-1, read-out: IC50 in cell proliferation assay, cell line PFSK-1) was 16.7 µM and the IC50 (Homo sapiens, RL95-2, read-out: IC50 in cell proliferation assay, cell line RL95-2 (EGFR p.A289V)) was 1.39 µM. For the same compound, the IC50 (Homo sapiens, RPMI-7951, read-out: IC50 in cell proliferation assay, cell line RPMI-7951 (BRAF p.V600E)) was 2.79 µM, the IC50 (Homo sapiens, RS4-11, read-out: IC50 in cell proliferation assay, cell line RS4;11) was 14.7 µM and the IC50 (Homo sapiens, Rec1, read-out: IC50 in cell proliferation assay, cell line REC-1) was 6.58 µM. For the same compound, the IC50 (Homo sapiens, SHP77, read-out: IC50 in cell proliferation assay, cell line SHP-77) was greater than 31.6 µM, the IC50 (Homo sapiens, SK-BR-3, read-out: IC50 in cell proliferation assay, cell line SK-BR-3 (ERBB2 amplification)) was 3.88 µM and the IC50 (Homo sapiens, SK-N-AS, read-out: IC50 in cell proliferation assay, cell line SK-N-AS) was 4.65 µM. It also gave an IC50 (Homo sapiens, SK-N-FI, read-out: IC50 in cell proliferation assay, cell line SK-N-FI) of 4.14 µM, an IC50 (Homo sapiens, SK-N-MC, read-out: IC50 in cell proliferation assay, cell line SK-N-MC) of 10.4 µM and an IC50 (Homo sapiens, SK-N-SH, read-out: IC50 in cell proliferation assay, cell line SK-N-SH (ALK p.F1174L)) of 1.65 µM. The IC50 (Homo sapiens, SNU-5, read-out: IC50 in cell proliferation assay, cell line SNU-5 (MET amplification)) was greater than 31.6 µM, the IC50 (Homo sapiens, SNU-16, read-out: IC50 in cell proliferation assay, cell line SNU-16 (FGFR2 amplification)) was 0.135 µM and the IC50 (Homo sapiens, SNU-C2B, read-out: IC50 in cell proliferation assay, cell line SNU-C2B (EGFR p.R165Q)) was 19.6 µM. For the same compound, the IC50 (Homo sapiens, SU-DHL-1, read-out: IC50 in cell proliferation assay, cell line SU-DHL-1 (NPM1-ALK)) was 11.4 µM, the IC50 (Homo sapiens, SU-DHL-6, read-out: IC50 in cell proliferation assay, cell line SU-DHL-6) was 1.93 µM and the IC50 (Homo sapiens, SUP-T1, read-out: IC50 in cell proliferation assay, cell line SUP-T1) was 30.7 µM. The IC50 (Homo sapiens, SW48, read-out: IC50 in cell proliferation assay, cell line SW48 (EGFR p.G719S)) was 4.57 µM, the IC50 (Homo sapiens, SW480, read-out: IC50 in cell proliferation assay, cell line SW480) was 15.4 µM and the IC50 (Homo sapiens, SW626, read-out: IC50 in cell proliferation assay, cell line SW626) was 9.63 µM. The IC50 (Homo sapiens, SW780, read-out: IC50 in cell proliferation assay, cell line SW780 (FGFR3-BAIAP2L1)) was 1.41 µM, the IC50 (Homo sapiens, SW837, read-out: IC50 in cell proliferation assay, cell line SW837) was 12.9 µM and the IC50 (Homo sapiens, SW872, read-out: IC50 in cell proliferation assay, cell line SW872 (BRAF p.V600E)) was 5.58 µM. The IC50 (Homo sapiens, SW900, read-out: IC50 in cell proliferation assay, cell line SW900) was 5.11 µM, the IC50 (Homo sapiens, SW948, read-out: IC50 in cell proliferation assay, cell line SW948) was 15.1 µM and the IC50 (Homo sapiens, SW982, read-out: IC50 in cell proliferation assay, cell line SW982 (BRAF p.V600E)) was 1.61 µM. It also gave an IC50 (Homo sapiens, SW-620, read-out: IC50 in cell proliferation assay, cell line SW620) of 2.46 µM, an IC50 (Homo sapiens, T98G, read-out: IC50 in cell proliferation assay, cell line T98G) of 0.785 µM and an IC50 (Homo sapiens, TCC-SUP, read-out: IC50 in cell proliferation assay, cell line TCCSUP) of 5.55 µM. The IC50 (Homo sapiens, THP-1, read-out: IC50 in cell proliferation assay, cell line THP-1) was greater than 31.6 µM, the IC50 (Homo sapiens, U2OS, read-out: IC50 in cell proliferation assay, cell line U2OS) was 2.67 µM and the IC50 (Homo sapiens, U-87 MG, read-out: IC50 in cell proliferation assay, cell line U-87MG ATCC) was 20.8 µM. It also gave an IC50 (Homo sapiens, U-118-MG, read-out: IC50 in cell proliferation assay, cell line U-118MG) of 2.78 µM, an IC50 (Homo sapiens, UMUC3, read-out: IC50 in cell proliferation assay, cell line UM-UC-3) of 2.83 µM and an IC50 (Hs766T, read-out: IC50 in cell proliferation assay, Hs 766T cell line) of 3.3 µM. For the same compound, the IC50 (L-82, read-out: IC50 in cell proliferation assay, L-82 cell line (NPM1-ALK)) was 11.1 µM, the IC50 (Rh30, read-out: IC50 in cell proliferation assay, cell line Rh30) was 6.62 µM and the IC50 (read-out: IC50 in cell proliferation assay, 11-18 cell line (EGFR p.L858R)) was 2.07 µM. The IC50 (read-out: IC50 in cell proliferation assay, Hs 852.T cell line) was 10.8 µM, the IC50 (read-out: IC50 in cell proliferation assay, JAR cell line) was 5.16 µM and the IC50 (read-out: IC50 in cell proliferation assay, cell line 5637) was 4.55 µM. The IC50 (read-out: IC50 in cell proliferation assay, cell line A-388) was 2.11 µM, the IC50 (read-out: IC50 in cell proliferation assay, cell line DB) was 13.3 µM and the IC50 (read-out: IC50 in cell proliferation assay, cell line DEL (NPM1-ALK)) was 16.1 µM. The IC50 (read-out: IC50 in cell proliferation assay, cell line ES-2 (BRAF p.V600E)) was 7.67 µM, the IC50 (read-out: IC50 in cell proliferation assay, cell line PA-1) was 4.5 µM and the IC50 (read-out: IC50 in cell proliferation assay, cell line PC-3) was 6.08 µM. For the same compound, the IC50 (read-out: IC50 in cell proliferation assay, cell line RD) was 14.6 µM, the IC50 (read-out: IC50 in cell proliferation assay, cell line RKO (BRAF p.V600E)) was 11.3 µM and the IC50 (read-out: IC50 in cell proliferation assay, cell line RL) was 5.67 µM. For the same compound, the IC50 (read-out: IC50 in cell proliferation assay, cell line RT-4 (FGFR3-TACC3)) was 0.453 µM, the IC50 (read-out: IC50 in cell proliferation assay, cell line SR (NPM1-ALK)) was 8.14 µM and the IC50 (read-out: IC50 in cell proliferation assay, cell line T24) was 6.55 µM. For the same compound, the IC50 (read-out: IC50 in cell proliferation assay, cell line TT (RET p.C634W)) was 0.055 µM and the IC50 (read-out: IC50 in cell proliferation assay, cell line VA-ES-BJ) was 7.77 µM.
